Reference: US10174016B2 (BAYER AKTIENGESELLSCHAFT, priority 2014, dated 2019)

What was measured:
human P2X3 receptor = human P2X3 receptor (Homo sapiens (Human), UniProt P56373); experiment: Intracellular calcium measurement (FLIPR, Fluo-4) of antagonist activity at human P2X3 receptors; format: cell-based; conditions: human P2X3, FLIPR calcium assay, agonist α,β-Me-ATP; read-out: hP2X3 IC50
How it was run: (§1)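 Cells expressing human P2X3 or P2X2/3, loaded with Fluo-4, preincubated 30 min at 37° C. with compound (1% DMSO final), then challenged with α,β-Me-ATP at its EC80. Peak FLIPR fluorescence over 90 sec gave % response; IC50, maximal inhibition and Hill slope from triplicates.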

human P2X2/3 receptor = human P2X2/3 receptor (Homo sapiens (Human), UniProt P56373+Q9UBL9); experiment: Intracellular calcium measurement (FLIPR, Fluo-4) of antagonist activity at human P2X2/3 receptors; format: cell-based; conditions: human P2X2/3, FLIPR calcium assay, agonist α,β-Me-ATP; read-out: hP2X2/3 IC50
How it was run: as §1

human P2X3 receptor, sequence (P56373 whole entry): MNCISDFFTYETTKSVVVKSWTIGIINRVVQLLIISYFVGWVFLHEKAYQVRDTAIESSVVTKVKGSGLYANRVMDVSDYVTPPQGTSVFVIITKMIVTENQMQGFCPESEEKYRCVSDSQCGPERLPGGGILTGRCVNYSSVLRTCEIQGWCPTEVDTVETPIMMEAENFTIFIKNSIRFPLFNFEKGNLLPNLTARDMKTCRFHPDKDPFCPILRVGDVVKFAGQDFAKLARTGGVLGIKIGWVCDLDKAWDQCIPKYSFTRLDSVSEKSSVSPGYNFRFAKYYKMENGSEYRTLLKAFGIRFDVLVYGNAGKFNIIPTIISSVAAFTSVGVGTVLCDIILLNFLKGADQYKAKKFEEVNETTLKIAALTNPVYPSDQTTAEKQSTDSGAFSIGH
human P2X2/3 receptor, sequence (P56373 whole entry): as above
human P2X2/3 receptor, sequence (Q9UBL9 whole entry): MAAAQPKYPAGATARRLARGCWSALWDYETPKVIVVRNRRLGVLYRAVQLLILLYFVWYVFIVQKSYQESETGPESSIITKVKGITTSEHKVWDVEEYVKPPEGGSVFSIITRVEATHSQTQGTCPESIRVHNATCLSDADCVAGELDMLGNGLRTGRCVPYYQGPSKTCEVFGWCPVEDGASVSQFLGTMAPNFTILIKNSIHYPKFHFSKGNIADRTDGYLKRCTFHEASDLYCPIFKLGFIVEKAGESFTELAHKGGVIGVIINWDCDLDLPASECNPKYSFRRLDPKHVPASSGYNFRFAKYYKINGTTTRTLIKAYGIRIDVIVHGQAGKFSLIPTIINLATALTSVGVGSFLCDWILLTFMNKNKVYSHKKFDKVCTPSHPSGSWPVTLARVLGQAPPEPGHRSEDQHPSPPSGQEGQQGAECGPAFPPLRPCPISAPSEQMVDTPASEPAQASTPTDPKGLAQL

Structure (SMILES) | IC50 (human P2X3 receptor) [nM] | IC50 (human P2X2/3 receptor) [nM]
Cc1cnc(-c2cc(OC[C@@H]3CCOC3)cc(C(=O)N[C@H](C)c3ccc(C(F)(F)F)nn3)c2)s1 [Example 79, 3-(5-Methyl-1,3-thiazol-2-yl)-5-[(3R)-tetrahydrofuran-3-ylmethoxy]-N-[(1R)-1-[6-(trifluoromethyl)pyridazin-3-yl]ethyl]benzamide] | 9 | 413
Cc1cnc(-c2cc(OC3CCOCC3)cc(C(=O)NC(C)c3ncc(F)cc3Cl)c2)s1 (centres unmarked) [Example 80, N-[1-(3-Chloro-5-fluoropyridin-2-yl)ethyl]-3-(5-methyl-1,3-thiazol-2-yl)-5-(tetrahydro-2H-pyran-4-yloxy)benzamide] | 12 | 339
Cc1cnc(-c2cc(OC3CCOCC3)cc(C(=O)NC(C)c3ncc(Cl)cc3F)c2)s1 (centres unmarked) [Example 81, N-[1-(5-Chloro-3-fluoropyridin-2-yl)ethyl]-3-(5-methyl-1,3-thiazol-2-yl)-5-(tetrahydro-2H-pyran-4-yloxy)benzamide] | 3 | 34
Cc1ccc(CNC(=O)c2cc(OC3CCOCC3)cc(-c3ncc(C)s3)c2)nn1 [Example 82, N-[(6-Methylpyridazin-3-yl)methyl]-3-(5-methyl-1,3-thiazol-2-yl)-5-(tetrahydro-2H-pyran-4-yloxy)benzamide] | 28 | 380
Cc1cnc(CNC(=O)c2cc(OC3CCOCC3)cc(-c3ncc(C)s3)c2)cn1 [Example 83, N-[(5-Methylpyrazin-2-yl)methyl]-3-(5-methyl-1,3-thiazol-2-yl)-5-(tetrahydro-2H-pyran-4-yloxy)benzamide] | 125 | 1160
Cc1cnc(-c2cc(OC3CCOCC3)cc(C(=O)N[C@H](C)c3cnc(C(F)(F)F)nc3)c2)s1 [Example 85, 3-(5-Methyl-1,3-thiazol-2-yl)-5-(tetrahydro-2H-pyran-4-yloxy)-N-{(1R)-1-[2-(trifluoromethyl)pyrimidin-5-yl]ethyl}benzamide] | 10 | 36
COc1ccc([C@@H](C)NC(=O)c2cc(OC3CCOCC3)cc(-c3ncc(C)s3)c2)cn1 [Example 86, N-[(1R)-1-(6-Methoxypyridin-3-yl)ethyl]-3-(5-methyl-1,3-thiazol-2-yl)-5-(tetrahydro-2H-pyran-4-yloxy)benzamide] | 12 | 144
Cc1ccc([C@@H](C)NC(=O)c2cc(OC3CCOCC3)cc(-c3ncc(C)s3)c2)nn1 [Example 87, N-[(1R)-1-(6-Methylpyridazin-3-yl)ethyl]-3-(5-methyl-1,3-thiazol-2-yl)-5-(tetrahydro-2H-pyran-4-yloxy)benzamide] | 15 | 119
COc1ccc(CNC(=O)c2cc(OC3CCOCC3)cc(-c3ncc(C)s3)c2)nn1 [Example 88, N-[(6-Methoxypyridazin-3-yl)methyl]-3-(5-methyl-1,3-thiazol-2-yl)-5-(tetrahydro-2H-pyran-4-yloxy)benzamide] | 30 | 217
CC[C@@H](NC(=O)c1cc(OC2CCOCC2)cc(-c2ncc(C)s2)c1)c1cnc(C(F)(F)F)nc1 [Example 90, 3-(5-Methyl-1,3-thiazol-2-yl)-5-(tetrahydro-2H-pyran-4-yloxy)-N-{(1R)-1-[2-(trifluoromethyl)pyrimidin-5-yl]propyl}benzamide] | 111 | 710
Cc1ccc([C@@H](C)NC(=O)c2cc(OC3CCOCC3)cc(-c3ncc(C)s3)c2)cn1 [Example 91, N-[(1R)-1-(6-Methylpyridin-3-yl)ethyl]-3-(5-methyl-1,3-thiazol-2-yl)-5-(tetrahydro-2H-pyran-4-yloxy)benzamide] | 19 | 133
Cc1cnc(-c2cc(OC3CCOCC3)cc(C(=O)N[C@H](C)c3nnc(C)s3)c2)s1 [Example 92, N-[(1R)-1-(5-Methyl-1,3,4-thiadiazol-2-yl)ethyl]-3-(5-methyl-1,3-thiazol-2-yl)-5-(tetrahydro-2H-pyran-4-yloxy)benzamide] | 24 | 317
Cc1ccc(CNC(=O)c2cc(OCC3CCOCC3)cc(-c3ncc(C)s3)c2)nn1 [Example 93, N-[(6-Methylpyridazin-3-yl)methyl]-3-(5-methyl-1,3-thiazol-2-yl)-5-(tetrahydro-2H-pyran-4-ylmethoxy)benzamide] | 8 | 385
Cc1cnc([C@@H](C)NC(=O)c2cc(OCC3CCOCC3)cc(-c3ncc(C)s3)c2)cn1 [Example 94, N-[(1R)-1-(5-Methylpyrazin-2-yl)ethyl]-3-(5-methyl-1,3-thiazol-2-yl)-5-(tetrahydro-2H-pyran-4-ylmethoxy)benzamide] | 7 | 132
Cc1cnc(-c2cc(OCC3CCOCC3)cc(C(=O)NC(C)c3ncc(Cl)cc3F)c2)s1 (centres unmarked) [Example 95, N-[1-(5-Chloro-3-fluoropyridin-2-yl)ethyl]-3-(5-methyl-1,3-thiazol-2-yl)-5-(tetrahydro-2H-pyran--4-ylmethoxy)benzamide] | 2 | 129
Cc1cnc(-c2cc(OCC3CCOCC3)cc(C(=O)NC(C)c3ncc(F)cc3Cl)c2)s1 (centres unmarked) [Example 96, N-[1-(3-Chloro-5-fluoropyridin-2-yl)ethyl]-3-(5-methyl-1,3-thiazol-2-yl)-5-(tetrahydro-2H-pyran-4-ylmethoxy)benzamide] | 18 | 1080
Cc1cnc(CNC(=O)c2cc(OCC3CCOCC3)cc(-c3ncc(C)s3)c2)cn1 [Example 97, N-[(5-Methylpyrazin-2-yl)methyl]-3-(5-methyl-1,3-thiazol-2-yl)-5-(tetrahydro-2H-pyran-4-ylmethoxy)benzamide] | 15 | 1690
Cc1cnc(-c2cc(OCC3CCOCC3)cc(C(=O)N[C@H](C)c3cnc(C(F)(F)F)nc3)c2)s1 [Example 98, 3-(5-Methyl-1,3-thiazol-2-yl)-5-(tetrahydro-2H-pyran-4-ylmethoxy)-N-[(1R)-1-[2-(trifluoromethyl)pyrimidin-5-yl]ethyl]benzamide] | 1 | 19
Cc1ccc([C@@H](C)NC(=O)c2cc(OCC3CCOCC3)cc(-c3ncc(C)s3)c2)nn1 [Example 99, N-[(1R)-1-(6-Methylpyridazin-3-yl)ethyl]-3-(5-methyl-1,3-thiazol-2-yl)-5-(tetrahydro-2H-pyran-4-ylmethoxy)benzamide] | 2 | 27
Cc1cc(Oc2cc(C(=O)N[C@H](C)c3ccc(C)nn3)cc(-c3ncc(C)s3)c2)ccn1 [Example 100, N-[(1R)-1-(6-Methylpyridazin-3-yl)ethyl]-3-[(2-methylpyridin-4-yl)oxy]-5-(5-methyl-1,3-thiazol-2-yl)benzamide] | 6 | 16
Cc1cc(Oc2cc(C(=O)NCc3ccc(C)nn3)cc(-c3ncc(C)s3)c2)ccn1 [Example 101, N-[(6-Methylpyridazin-3-yl)methyl]-3-[(2-methylpyridin-4-yl)oxy]-5-(5-methyl-1,3-thiazol-2-yl)benzamide] | 15 | 60
Cc1cnc([C@@H](C)NC(=O)c2cc(Oc3ccnc(C)c3)cc(-c3ncc(C)s3)c2)cn1 [Example 102, N-[(1R)-1-(5-Methylpyrazin-2-yl)ethyl]-3-[(2-methylpyridin-4-yl)oxy]-5-(5-methyl-1,3-thiazol-2-yl)benzamide] | 10 | 57
